Consider one compound from ChEMBL document CHEMBL5143637, “Design, synthesis and antibacterial activity against pathogenic mycobacteria of conjugated hydroxamic acids, hydrazides and O-alkyl/O-acyl protected hydroxamic derivatives” (Bioorg Med Chem Lett, 2022).

Converted amounts (≈) assume the structure as drawn.

The MIC is the smallest concentration in the dilution series that meets the test's criterion for growth inhibition.

The test system of the assay is Mycobacterium tuberculosis variant bovis. Description: Antimycobacterial activity against Mycobacterium bovis BCG assessed as inhibition of bacterial growth incubated for 4 days by alamar blue assay. Particulars: 96 h, time 4 day. It is filed as functional. A general note: Alamar Blue is a resazurin reagent that responds to reducing activity.

With `CCCC[C@H](CN(O)C=O)C(=O)N1CCC[C@H]1C(=O)Nc1ccccn1`, the MIC is 0.2 µg/mL (≈ 0.552 µM).
